# In US8962600B2, “Neuroprotective compounds and their use” (The Medical College of Wisconsin, Inc., priority 2009, dated 2015):
# Columns and labels:
# Assay type in all cases: in vivo, C57BL/6 mice
# [1] = tested on: dopaminergic neurons in substantia nigra; assay: FLUORO-JADE B and tyrosine hydroxylase double labeling in substantia nigra; conditions: MPTP- and diapocynin-treated mice; 7 days after final MPTP injection
# Method: (§1) Six- to 8-week-old C57BL/6 mice weighing 24 to 28 g were housed in standard conditions of constant temperature (22±1° C.), humidity (relative, 30%), and a 12-h light/dark cycle. Mice were allowed free access to food and water. Use of the animals and protocol procedures were approved and supervised by the Committee on Animal Care at Iowa State University (Ames, Iowa). For neurodegeneration studies, mice either received diapocynin (300 mg/kg dose) by oral gavage for 1 day (pre-treatment before MPTP administration), 5 days (co-treatment with MPTP), or 7 days (post-treatment after MPTP).
# FLUORO-JADE B® and tyrosine hydroxylase (TH) double-labeling was performed in substantia nigra sections, as described previously (58). In brief, 7 days after the final MPTP injection, mice were sacrificed and perfused with 4% PFA and post-fixed with PFA and 30% sucrose, respectively. Fixed brains were cut into 30 μm sections and kept in 30% sucrose-ethylene glycol solutions at −20° C. On the day of staining, sections were rinsed with PBS and incubated with anti-TH antibody (Millipore, mouse monoclonal, dilution 1;1600) followed by Alexa Fluor 568 donkey anti-mouse secondary antibody (Invitrogen). […] Sections were viewed under a Nikon inverted fluorescence microscope (model TE-2000U). […]
# [2] = tested on: inducible nitric oxide synthase (iNOS/NOS2); assay: iNOS expression in substantia nigra, Western blot and immunostaining; conditions: MPTP-treated mice that also received diapocynin 300 mg/kg gavage
# Method: (§2) For checking inflammatory and oxidative stress markers, mice were gavaged diapocynin (300 mg/kg dose) 1 day before MPTP treatment (pre-treatment) and continued for another 4 days of co-treatment with MPTP. In the sub-acute MPTP regimen, MPTP (25 mg/kg) was injected intraperitoneally once per day from day 2 to day 7. Control mice received saline at the same dosage.
# (§3) Four days after MPTP treatment, mice were perfused with 4% paraformaldehyde (PFA) and post-fixed with PFA and 30% sucrose, respectively. Next, fixed brains were cut into 30 μm sections and kept in 30% sucrose-ethylene glycol solutions at −20° C. On the day of staining, sections were rinsed with phosphate-buffered saline (PBS) and incubated with different primary antibodies, including anti-IBA-1 (DAKO, Carpinteria, Calif.), anti-GFAP (Millipore, Billerica, Mass.), anti-iNOS (Santa Cruz Biotechnology, Santa Cruz, Calif.), anti-3NT (Millipore), anti-4HNE (R&D Systems, Minneapolis, Minn.) and anti-gp91phox (Santa Cruz Biotechnology) for overnight at 4° C. Appropriate secondary antibodies (Alexa Fluor 488, 594, or 555 from Invitrogen, Carlsbad, Calif.) were used followed by incubation with 10 μg/ml Hoechst 33342 for 5 min at room temperature to stain the nucleus. Sections were viewed under a Nikon inverted fluorescence microscope (model TE-2000U; Nikon, Tokyo, Japan). Images were captured with a SPOT digital camera (Diagnostic Instruments, Inc., Sterling Heights, Mich.).
# Mice were sacrificed 4 days or 7 days after MPTP treatment and substantia nigra tissue was dissected out. Brain lysates containing equal amounts of protein were loaded in each lane and separated on a 10 to 12% SDS polyacrylamide gel, as described previously (48). After the separation, proteins were transferred to a nitrocellulose membrane and nonspecific binding sites were blocked by treating with Li-Cor Odyssey blocking buffer (Li-Cor Biosciences, Lincoln, Nebr.). The membranes were then incubated with different primary antibodies including anti-TH (Millipore), anti-iNOS (Calbiochem), anti-3NT (Millipore) and anti-4HNE (R&D Systems). […]
# [3] = tested on: tyrosine hydroxylase (TH); assay: Tyrosine hydroxylase expression in striatum and substantia nigra, Western blot and DAB immunostaining
# Method: as §1
# DAB immunostaining was performed in striatal and substantia nigra sections as described previously (57). In brief, 1 day or 7 days after final dosing of MPTP, mice were sacrificed and perfused with 4% PFA and post-fixed with PFA and 30% sucrose, respectively. Next, fixed brains were cut into 30 μm sections and kept in 30% sucrose-ethylene glycol solutions at −20° C. On the day of staining, sections were rinsed with PBS and incubated with either anti-TH (rabbit anti-mouse, 1:1800; Calbiochem, Gibstown, N.J.), anti-IBA-1 (goat anti-mouse, 1:1000; Dako), anti-GFAP (mouse anti-mouse, 1:1000; Millipore, Billerica, Mass.), or anti-gp91phox (mouse anti-mouse, 1:500; Santa Cruz Biotechnology) overnight at 4° C. […]
# [4] = tested on: 4-hydroxynonenol (4-HNE); assay: 4-hydroxynonenol expression in substantia nigra, Western blot and immunostaining
# Method: as §2
# as §3, with “Images were captured with a SPOT digital camera (Diagnostic Instruments, Inc., Sterling Heights, Mich.).” left out
smiles,measurement,setting,value
COc1cc(C(C)=O)cc(-c2cc(C(C)=O)cc(OC)c2O)c1O [diapocynin],FLUORO-JADE B-positive cells in substantia nigra,[1],fewer
same,TH-positive cells in substantia nigra,[1],increases
same,colocalized cells of iNOS and GFAP in substantia nigra,[2],very few colocalized cells
same,colocalized cells of iNOS and IBA-1 in substantia nigra,[2],very few colocalized cells
same,staining of iNOS in substantia nigra,[2],marked decrease
same,expression of TH in striatum and substantia nigra (Western blot),"[3]; MPTP- and diapocynin-treated mice, 300 mg/kg oral gavage",less reduction
same,loss of TH-positive neurons and terminals in striatum and substantia nigra (TH-DAB immunostaining),[3]; MPTP-treated mice with diapocynin treatment 300 mg/kg oral gavage,substantially prevented
same,MPTP-induced increase in expression of 4-HNE in substantia nigra,"[4]; diapocynin 300 mg/kg gavage, MPTP 25 mg/kg i.p., Western blot and immunostaining",attenuated
same,colocalized cells of TH and 4-HNE in substantia nigra,"[4]; double-label immunostaining, MPTP- and diapocynin-treated mice",very few colocalized cells
